According to patent publication US6706664B1, “Benzoxazole compounds, process for the preparation thereof and herbicides” (UBE Industries, Ltd., priority 1999, dated 2004):

Legend:
Set-up in all cases: key: 0: normal development; 1: Less damaged; 2: Slightly damaged; 3: Moderately damaged; 4: Severely damaged; 5: All killed
corn = experiment: Soil treatment test for upland field; assay type: in vivo; conditions: 500 g/ha, glass house 25° C., 3 weeks
How it was run: (§1)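 Soil treatment, 500 g/ha, sprayed onto soil surface after sowing; alluvial Ube soil; 0.05% surfactant in diluent; glasshouse, avg 25° C, 3 wk; visual score 0–5 (5 = all killed).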

wheat = experiment: Soil treatment test for upland field; assay type: in vivo; conditions: 500 g/ha, glass house 25° C., 3 weeks
How it was run: as §1

sugar beat = experiment: Soil treatment test for upland field; assay type: in vivo; conditions: 500 g/ha, glass house 25° C., 3 weeks
How it was run: as §1

soybean [1] = experiment: Soil treatment test for upland field; assay type: in vivo; conditions: 500 g/ha, glass house 25° C., 3 weeks
How it was run: as §1

solgum = experiment: Soil treatment test for upland field; assay type: in vivo; conditions: 500 g/ha, glass house 25° C., 3 weeks
How it was run: as §1

cotton [2] = experiment: Soil treatment test for upland field; assay type: in vivo; conditions: 500 g/ha, glass house 25° C., 3 weeks
How it was run: as §1

common lambsquartes = experiment: Soil treatment test for upland field; assay type: in vivo, Chenopodium album; conditions: 500 g/ha, glass house 25° C., 3 weeks
How it was run: as §1

flat sedge = experiment: Herbicidal test for paddy field; assay type: in vivo, Cyperus serotinus; conditions: paddy field pot, 500 g/ha dropwise at 1.5 leaf stage of barnyardgrass, 3 weeks, rank vs non-treated
How it was run: (§2)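 Scores run on a six-point scale from 0 for normal development to 5 for all plants killed, judged against non-treated pots. Plants were grown in Ube soil under 3 cm of standing water and treated by pipet with 500 g/ha of the compound once barnyardgrass had 1.5 leaves. Assessment followed 3 weeks in a glasshouse averaging 25° C.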

soybean [3] = experiment: Foliar spread test for upland field; assay type: in vivo; conditions: foliar spray 500 ppm, 3 weeks, rank vs non-treated
How it was run: (§3)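 Two-week-old glasshouse seedlings on volcanic ash soil were treated by foliar spray at 500 ppm, with 0.5% surfactant in the diluent. Effects were graded visually after three weeks, from 0 for no injury to 5 for complete kill.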

cotton [4] = experiment: Foliar spread test for upland field; assay type: in vivo; conditions: foliar spray 500 ppm, 3 weeks, rank vs non-treated
How it was run: as §3

barnyardgrass [5] = experiment: Soil treatment test for upland field; assay type: in vivo, Echinochloa crusgalli; conditions: 500 g/ha, glass house 25° C., 3 weeks
How it was run: as §1

barnyardgrass [6] = experiment: Foliar spread test for upland field; assay type: in vivo, Echinochloa crusgalli; conditions: foliar spray 500 ppm, 3 weeks, rank vs non-treated
How it was run: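 Scoring used a 0–5 scale, where 0 meant normal development and 5 meant all plants killed, assessed 3 weeks after treatment. Plants had been grown about 2 weeks from seed in volcanic ash soil before a uniform spray at 500 ppm containing 0.5% surfactant.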

velvetleaf = experiment: Soil treatment test for upland field; assay type: in vivo, Abutilon theophrasti; conditions: 500 g/ha, glass house 25° C., 3 weeks
How it was run: as §1

barnyardgrass [7] = experiment: Herbicidal test for paddy field; assay type: in vivo, Echinochloa crusgalli; conditions: paddy field pot, 500 g/ha dropwise at 1.5 leaf stage of barnyardgrass, 3 weeks, rank vs non-treated
How it was run: as §2

bulrush = experiment: Herbicidal test for paddy field; assay type: in vivo, Scrips juncoides; conditions: paddy field pot, 500 g/ha dropwise at 1.5 leaf stage of barnyardgrass, 3 weeks, rank vs non-treated
How it was run: as §2

Row | Structure (SMILES) | Effects Corn (corn) | Effects Wheat (wheat) | Effects Sugar beat (sugar beat) | Effects Soybean (soybean [1]) | Effects Solgum (solgum) | Effects Cotton (cotton [2]) | Effects Common lambsquarters (common lambsquartes) | Effect Flat sedge (flat sedge) | Effects Soybean (soybean [3]) | Effects Cotton (cotton [4]) | Effects Barnyardgrass (barnyardgrass [5]) | Effects Barnyardgrass (barnyardgrass [6]) | Effects Velvetleaf (velvetleaf) | Effect Barnyardgrass (barnyardgrass [7]) | Effect Bulrush (bulrush)
1 | CCC(Oc1cccc(C(F)(F)F)c1)c1nc2cc(F)ccc2o1 (stereo not drawn) [Compound 120] | 0 | 0 | 3 | 0 | 1 | 0 | 4 | 2 | 5 | 2 | 4 | 1 | 3 | 4 | 3
2 | CCC(Oc1ccc(F)c(C(F)(F)F)c1)c1nc2cc(Br)ccc2o1 (stereo not drawn) [Compound 165] | 2 | 0 | 5 | 0 | 1 | 0 | 3 | 3 | 5 | 3 | 5 | 2 | 1 | 4 | 
3 | CCC(Oc1ccc(F)c(C(F)(F)F)c1)c1nc2cc([N+](=O)[O-])ccc2o1 (stereo not drawn) [Compound 177] | 2 | 2 | 5 | 1 | 2 | 2 | 4 | 3 | 5 | 3 | 3 | 2 | 5 | 5 | 5
4 | CCC(Oc1cccc(C(F)(F)F)c1)c1nc2cc(C#N)ccc2o1 (stereo not drawn) [Compound 190] | 2 | 2 | 5 | 0 | 2 | 5 | 4 | 3 | 5 | 3 | 5 | 3 | 3 | 5 | 
5 | CCCC(Oc1cccc(C(F)(F)F)c1)c1nc2cc(C#N)ccc2o1 (stereo not drawn) [Compound 192] | 2 | 2 | 5 | 0 | 2 | 1 | 5 | 4 | 3 | 3 | 3 | 2 | 5 | 5 | 4
6 | CCC(Oc1ccc(F)c(C(F)(F)F)c1)c1nc2cc(F)c(F)cc2o1 (stereo not drawn) [Compound 284] | 2 | 2 | 5 | 2 | 2 | 1 | 4 | 4 | 5 | 3 | 5 | 1 | 5 | 4 | 4
7 | CCC(Oc1ccc(F)c(C(F)(F)F)c1)c1nc2cc(Cl)c(C)cc2o1 (stereo not drawn) [Compound 340] | 2 | 1 | 5 | 0 | 3 | 0 | 5 | 2 | 3 | 3 | 4 | 2 | 5 | 5 | 4
8 | CCC(Oc1ccc(Cl)c(C(F)(F)F)c1)c1nc2cc(F)ccc2o1 (stereo not drawn) [Compound 441] | 0 | 1 | 5 | 0 | 1 | 0 | 4 | 2 | 3 | 3 | 5 | 2 | 1 | 5 | 
9 | CCC(Oc1cccc(OC(F)(F)F)c1)c1nc2cc([N+](=O)[O-])ccc2o1 (stereo not drawn) [Compound 450] | 2 | 1 | 5 | 1 | 2 | 2 | 4 | 3 | 4 | 5 | 5 | 3 | 5 | 4 | 4
